Data published in patent US11319299B2, “Substituted carboxamides as inhibitors of WDR5 protein-protein binding” (PROPELLON THERAPEUTICS INC., priority 2016, dated 2022).

Target: WDR5 (Homo sapiens (Human), UniProt P61964)
Assay: Surface Plasmon Resonance (SPR) assay, KD and residence time
Assay type: binding
Conditions: surface plasmon resonance (SPR); read-out: WDR5 binding affinity (KD)

Compound | Kd
C[C@@H]1CN(c2cc(F)c(-c3ccnc(S(C)(=O)=O)n3)cc2NC(=O)c2c[nH]c(=O)cc2C(F)(F)F)C[C@H](C)N1C [Example 399, N-[4-fluoro-5-(2-methylsulfonylpyrimidin-4-yl)-2-[(3R,5S)-3,4,5-trimethylpiperazin-1-yl]phenyl]-6-oxo-4-(trifluoromethyl)-1H-pyridine-3-carboxamide] | 4.58 nM
C[C@@H]1CN(c2cc(F)c(C3=CCN(c4ncc(C#N)cn4)CC3)cc2NC(=O)c2c[nH]c(=O)cc2C(F)(F)F)C[C@H](C)N1C [Example 404, N-[5-[1-(5-cyanopyrimidin-2-yl)-3,6-dihydro-2H-pyridin-4-yl]-4-fluoro-2-[(3R,5S)-3,4,5-trimethylpiperazin-1-yl]phenyl]-6-oxo-4-(trifluoromethyl)-1H-pyridine-3-carboxamide] | 1 nM
C[C@@H]1CN(c2cc(F)c(C3=CCN(c4ncc(CN(C)C)cn4)CC3)cc2NC(=O)c2c[nH]c(=O)cc2C(F)(F)F)C[C@H](C)N1C [Example 405, N-[5-[1-[5-[(dimethylamino)methyl]pyrimidin-2-yl]-3,6-dihydro-2H-pyridin-4-yl]-4-fluoro-2-[(3R,5S)-3,4,5-trimethylpiperazin-1-yl]phenyl]-6-oxo-4-(trifluoromethyl)-1H-pyridine-3-carboxamide] | 0.095 nM
C[C@@H]1CN(c2cc(F)c(C3=CCN(c4ncc(CN5CCOCC5)cn4)CC3)cc2NC(=O)c2c[nH]c(=O)cc2C(F)(F)F)C[C@H](C)N1C [Example 406, N-[4-fluoro-5-[1-[5-(morpholin-4-ylmethyl)pyrimidin-2-yl]-3,6-dihydro-2H-pyridin-4-yl]-2-[(3R,5S)-3,4,5-trimethylpiperazin-1-yl]phenyl]-6-oxo-4-(trifluoromethyl)-1H-pyridine-3-carboxamide] | 0.457 nM
C[C@@H]1CN(c2cc(F)c(C3=CCN(c4ncc(CN5CCN(C)CC5)cn4)CC3)cc2NC(=O)c2c[nH]c(=O)cc2C(F)(F)F)C[C@H](C)N1C [Example 407, N-[4-fluoro-5-[1-[5-[(4-methylpiperazin-1-yl)methyl]pyrimidin-2-yl]-3,6-dihydro-2H-pyridin-4-yl]-2-[(3R,5S)-3,4,5-trimethylpiperazin-1-yl]phenyl]-6-oxo-4-(trifluoromethyl)-1H-pyridine-3-carboxamide] | 0.231 nM
CC(C)COC(=O)N1CCC=C(c2cc(NC(=O)c3c[nH]c(=O)cc3C(F)(F)F)c(N3C[C@@H](C)N(C)[C@@H](C)C3)cc2F)C1 [Example 408, 2-methylpropyl 5-[2-fluoro-5-[[6-oxo-4-(trifluoromethyl)-1H-pyridine-3-carbonyl]amino]-4-[(3R,5S)-3,4,5-trimethylpiperazin-1-yl]phenyl]-3,6-dihydro-2H-pyridine-1-carboxylate] | 2.75 nM
C[C@@H]1CN(c2cc(F)c(C3=CCCN(c4ncc(C=O)cn4)C3)cc2NC(=O)c2c[nH]c(=O)cc2C(F)(F)F)C[C@H](C)N1C [Example 409, N-[4-fluoro-5-[1-(5-formylpyrimidin-2-yl)-3,6-dihydro-2H-pyridin-5-yl]-2-[(3R,5S)-3,4,5-trimethylpiperazin-1-yl]phenyl]-6-oxo-4-(trifluoromethyl)-1H-pyridine-3-carboxamide] | 0.229 nM
C[C@@H]1CN(c2cc(F)c(C3=CCCN(c4ncc(CN5CCN(C)CC5)cn4)C3)cc2NC(=O)c2c[nH]c(=O)cc2C(F)(F)F)C[C@H](C)N1C [Example 416, N-[4-fluoro-5-[1-[5-[(4-methylpiperazin-1-yl)methyl]pyrimidin-2-yl]-3,6-dihydro-2H-pyridin-5-yl]-2-[(3R,5S)-3,4,5-trimethylpiperazin-1-yl]phenyl]-6-oxo-4-(trifluoromethyl)-1H-pyridine-3-carboxamide] | 0.108 nM
CCN(CC)[C@@H]1CCN(c2cc(F)c(-c3cnc(N4CCOCC4)nc3)cc2NC(=O)c2c[nH]c(=O)cc2C(F)(F)F)C1 [Example 419, N-[4-fluoro-5-(2-morpholin-4-ylpyrimidin-5-yl)-2-[(3R)-3-(diethylamino)pyrrolidin-1-yl]phenyl]-6-oxo-4-(trifluoromethyl)-1H-pyridine-3-carboxamide] | 5.37 nM
CC(C)N(C)[C@@H]1CCN(c2cc(F)c(-c3cnc(N4CCOCC4)nc3)cc2NC(=O)c2c[nH]c(=O)cc2C(F)(F)F)C1 [Example 420, N-[4-fluoro-5-(2-morpholin-4-ylpyrimidin-5-yl)-2-[(3R)-3-[methyl(propan-2-yl)amino]pyrrolidin-1-yl]phenyl]-6-oxo-4-(trifluoromethyl)-1H-pyridine-3-carboxamide] | 172 nM
C[C@@H]1CN(c2ccc(-c3cc(NC(=O)c4cn(C)c(=O)cc4C(F)(F)F)c(N4C[C@@H](C)N(C)[C@@H](C)C4)cc3F)cn2)C[C@H](C)O1 [Example 422, N-[4-fluoro-5-[6-[(2R,6S)-2,6-dimethylmorpholin-4-yl]pyridin-3-yl]-2-[(3S,5R)-3,4,5-trimethylpiperazin-1-yl]phenyl]-1-methyl-6-oxo-4-(trifluoromethyl)pyridine-3-carboxamide] | 2.43 nM
C[C@@H]1CN(c2cc(F)c(-c3cnc(N4CCC(C)(O)CC4)nc3)cc2NC(=O)c2c[nH]c(=O)cc2C(F)(F)F)C[C@H](C)N1C [Example 425, N-[4-fluoro-5-[2-(4-hydroxy-4-methylpiperidin-1-yl)pyrimidin-5-yl]-2-[(3R,5S)-3,4,5-trimethylpiperazin-1-yl]phenyl]-6-oxo-4-(trifluoromethyl)-1H-pyridine-3-carboxamide] | 1.06 nM
CCN(CC)[C@@H]1CCN(c2cc(F)c(-c3cnc(N4CCOCC4)nc3)cc2NC(=O)c2cn(C)c(=O)cc2C(F)(F)F)C1 [Example 428, N-[4-fluoro-5-(2-morpholin-4-ylpyrimidin-5-yl)-2-[(3R)-3-(diethylamino)pyrrolidin-1-yl]phenyl]-1-methyl-6-oxo-4-(trifluoromethyl)pyridine-3-carboxamide] | 145 nM
C[C@@H]1CN(c2ncc(-c3cc(NC(=O)c4ccc(F)cc4C(F)(F)F)c(N4C[C@@H](C)N(C)[C@@H](C)C4)cc3F)cn2)C[C@H](C)O1 [Example 431, 4-fluoro-N-[4-fluoro-5-[2-[(2R,6S)-2,6-dimethylmorpholin-4-yl]pyrimidin-5-yl]-2-[(3S,5R)-3,4,5-trimethylpiperazin-1-yl]phenyl]-2-(trifluoromethyl)benzamide] | 0.649 nM
C[C@@H]1CN(c2ccc(-c3cc(NC(=O)c4ccc(F)cc4C(F)(F)F)c(N4C[C@@H](C)N(C)[C@@H](C)C4)cc3F)cn2)C[C@H](C)O1 [Example 432, 4-fluoro-N-[4-fluoro-5-[6-[(2R,6S)-2,6-dimethylmorpholin-4-yl]pyridin-3-yl]-2-[(3S,5R)-3,4,5-trimethylpiperazin-1-yl]phenyl]-2-(trifluoromethyl)benzamide] | 2.31 nM
C[C@@H]1CN(c2cc(F)c(-c3ccc(N4CCOCC4)c(F)c3)cc2NC(=O)c2c[nH]c(=O)cc2C(F)F)C[C@H](C)N1C [Example 436, 4-(difluoromethyl)-N-[4-fluoro-5-(3-fluoro-4-morpholin-4-ylphenyl)-2-[(3R,5S)-3,4,5-trimethylpiperazin-1-yl]phenyl]-6-oxo-1H-pyridine-3-carboxamide] | 1.39 nM
